According to patent publication US12685780B2, “Immune inducer containing polynucleotide-peptide conjugate and pharmaceutical composition containing same” (The University of Kitakyushu, priority 2020, dated 2026):
“Also recorded” adds a separate entry of the source. Blank lines part the entries; values can stand above or below the substance they belong to.

Assays:
[1] = target: T1, MHC-1 on DC2.4 cells (Mus musculus, UniProt P01901); experiment: Competitive inhibition of binding of OVA peptide 1 to MHC-1 on DC2.4 cells; set-up: species or system murine; conditions: peptide 2.5 μg/mL against OVA peptide 1 0.25 μg/mL, on ice 30 minutes
T1 construct: endogenous in cells; host or cells: DC2.4 murine dendritic cell line
T1 sequence (P01901 22-369): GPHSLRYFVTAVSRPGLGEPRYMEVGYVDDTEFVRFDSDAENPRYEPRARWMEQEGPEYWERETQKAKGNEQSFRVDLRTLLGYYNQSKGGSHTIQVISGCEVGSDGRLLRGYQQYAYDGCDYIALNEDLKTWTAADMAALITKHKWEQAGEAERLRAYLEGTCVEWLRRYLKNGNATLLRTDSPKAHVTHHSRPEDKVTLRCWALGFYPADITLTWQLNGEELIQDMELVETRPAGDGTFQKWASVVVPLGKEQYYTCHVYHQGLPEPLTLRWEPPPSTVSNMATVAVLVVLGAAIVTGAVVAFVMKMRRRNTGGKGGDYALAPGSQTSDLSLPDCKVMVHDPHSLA
T1 sequence (P01887 21-119 partner): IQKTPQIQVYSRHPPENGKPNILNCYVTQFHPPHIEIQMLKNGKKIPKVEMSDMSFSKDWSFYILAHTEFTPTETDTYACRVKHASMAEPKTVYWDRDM
Description: Murine dendritic cell line, DC2.4 cells, were detached from a dish, and suspended in 1.5 mL tubes at a concentration of 1.5×10^5 cells per […] of PBS.

[2] = system: antigen-retaining splenocytes (TRP2-9); experiment: Induction of cytotoxic T lymphocytes in mice (in vivo CTL assay, flow cytometry), mTRP2 antigen; set-up: species or system C57BL/6 mice; conditions: antigen TRP2-9

Decrease of average fluorescence intensity (OVA peptide 1-MHC-1 complexes on DC2.4 cells) [1]: 23%
Substance: C-TRP2-8: CVYDFFVWL (SEQ ID NO: 32); cysteine added to N-terminus of amino acid residues 181 to 188 of mTRP2 (C-TRP2-8)

Inhibitory activity against binding of OVA peptide 1 to MHC class I molecules [1]: no inhibitory activity was observed
Substance: C-TRP2-9: CSVYDFFVWL (SEQ ID NO: 31); cysteine added to the N-terminus of TRP2-9 (C-TRP2-9)

Substance: CpG20(S)a-mTRP2pep9: CpG20(S)a (SEQ ID NO: 1) conjugated to peptide C-TRP2-8 (CVYDFFVWL) (DNA atcgactctcgagcgttctc; oligonucleotide-peptide conjugate; K3)
CTL-inducing ability (decrease in antigen-retaining splenocytes) ([2]; dose not stated): high CTL-inducing ability

Substance: CpG30(S)a-mTRP2pep9: CpG30(S)a (SEQ ID NO: 6, phosphorothioate) conjugated via disulfide spacer to peptide C-TRP2-8 (CVYDFFVWL) (DNA gagcgttctcatcgactctcgagcgttctc; phosphorothioate; disulfide spacer conjugate; K3-30(a))
CTL-inducing ability (decrease in antigen-retaining splenocytes) ([2]; 200 ng per mouse in terms of peptide, intracutaneous, single dose): marked decrease in antigen-retaining splenocytes; also recorded: can induce potent CTL activity
CTL-inducing ability (decrease in antigen-retaining splenocytes) ([2]; dose not stated): high CTL-inducing ability
Dose dependency of CTL-inducing ability ([2]; doses of 50, 200 or 1000 ng per mouse in terms of peptide): dose dependency
